In patent US20060110732A1, “Method for the identification of ligands” (priority 2002, published 2006):
Read-outs that look alike come from different tables or passages of the source.

What was measured:
ER-α [1] = biological target: T1, ER-α (Homo sapiens, UniProt P03372); assay: biochemical
T1 sequence (P03372 1-595): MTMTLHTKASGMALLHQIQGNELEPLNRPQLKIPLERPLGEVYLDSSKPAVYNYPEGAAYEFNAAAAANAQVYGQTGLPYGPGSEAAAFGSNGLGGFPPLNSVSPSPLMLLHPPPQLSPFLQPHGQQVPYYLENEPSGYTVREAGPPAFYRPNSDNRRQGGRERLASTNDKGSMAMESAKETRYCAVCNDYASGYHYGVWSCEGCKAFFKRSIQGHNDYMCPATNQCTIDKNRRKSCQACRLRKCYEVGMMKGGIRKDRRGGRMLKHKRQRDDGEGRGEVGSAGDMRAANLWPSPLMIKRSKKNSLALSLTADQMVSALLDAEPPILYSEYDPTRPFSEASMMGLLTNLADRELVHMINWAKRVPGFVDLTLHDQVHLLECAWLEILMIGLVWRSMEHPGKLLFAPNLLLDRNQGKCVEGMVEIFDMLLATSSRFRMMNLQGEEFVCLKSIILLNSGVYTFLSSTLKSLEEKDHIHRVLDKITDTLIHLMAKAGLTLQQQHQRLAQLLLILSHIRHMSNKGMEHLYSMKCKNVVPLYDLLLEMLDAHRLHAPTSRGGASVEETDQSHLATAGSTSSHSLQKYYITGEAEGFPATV
Protocol: (§1) A 2 μL ligand solution at 2 times the final concentration was dispensed with a micropipette into a 384 well black wall Greiner plate. Then, 2 μL of the protein dye solution was dispensed on top of the ligand solution in the 384 well plate. The plates were spun to ensure nixing of the protein-dye and ligand solutions followed by layering of 1 μL of silicone oil to prevent evaporation during heating of the samples. […] The values for the co-regulators represent a change in Tm stabilization from the receptor-ligand ΔTm values.

PPAR-γ [2] = biological target: T2, PPAR-γ (Homo sapiens, UniProt P37231); assay: Microplate thermal shift of PPAR-γ with ligands, co-activator peptide and co-repressor peptide NCoR-1, Example 5; format: binding; details: for Observed stabilization of PPAR-γ, SRC1-NR2 / Observed stabilization of PPAR-γ, NCoR-1 / Observed stabilization of PPAR-γ, Ligand: PPAR-γ 8 μM, ligand 40 μM; for Observed stabilization of PPAR-γ, SRC1-NR2: co-activator peptide 200 μM; for Observed stabilization of PPAR-γ, NCoR-1: co-repressor peptide NCoR-1 200 μM; for Observed stabilization of PPAR-γ, Ligand: no peptide; for Thermofluor Prediction (PPAR-γ): based on relative affinities for co-activator and co-repressor peptides, partial = partial agonist
T2 sequence (P37231 1-505): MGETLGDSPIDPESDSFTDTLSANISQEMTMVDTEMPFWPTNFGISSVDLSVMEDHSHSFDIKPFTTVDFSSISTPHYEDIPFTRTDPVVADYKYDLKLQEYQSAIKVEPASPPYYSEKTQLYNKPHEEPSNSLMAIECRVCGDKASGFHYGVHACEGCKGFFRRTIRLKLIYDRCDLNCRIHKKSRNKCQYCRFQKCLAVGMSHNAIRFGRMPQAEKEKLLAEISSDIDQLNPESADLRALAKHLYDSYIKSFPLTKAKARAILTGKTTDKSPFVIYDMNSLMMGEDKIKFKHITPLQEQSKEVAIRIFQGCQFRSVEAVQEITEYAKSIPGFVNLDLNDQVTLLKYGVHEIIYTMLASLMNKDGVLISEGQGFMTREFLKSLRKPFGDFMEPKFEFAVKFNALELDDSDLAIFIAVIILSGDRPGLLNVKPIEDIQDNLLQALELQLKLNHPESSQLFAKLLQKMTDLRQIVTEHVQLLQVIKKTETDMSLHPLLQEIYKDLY
Protocol: (§2) The experiments were performed in 25 mM HEPES pH 7.9, 200 mM NaCl, 5 mm DTT and in the presence of 50 μM dapoxyl-2-amino-ethyl sulfonamide. A 2 μL ligand solution at 2 times the final concentration was dispensed with a micropipette into a 384 well black wall Greiner plate. Then 2 μL of the protein dye solution was dispensed on top of the ligand solution in the 384 well plate. The plates were spun to ensure mixing of the protein-dye and ligand solutions followed by layering of 1 μL of silicone oil to prevent evaporation during heating of the samples. Data were collected on a Thermofluor apparatus and data were analyzed using software that employs a non-linear Marquardt algorithm. Reported results are the average of four experiments.

PPAR-γ [3] = biological target: T2, PPAR-γ; details: reported in literature; partial = partial agonist; cited from earlier work
ER-α [4] = biological target: T1, ER-α; assay: Microplate thermal shift of ER-α against a panel of steroid ligands, Example 2; format: binding; details: ER-α 8 μM, ligand 20 μM, 25 mM phosphate pH 8.0; average of four experiments
Protocol: The concentration of ER-α in all of the experiments was 8 μM and the ligand concentration was 20 μM.
A 2 μL ligand solution at 2 times the final concentration was dispensed with a micropipette into a 384 well black wall Greiner plate. Then, 2 μL of the protein dye solution was dispensed on top of the ligand solution in the 384 well plate. The plates were spun to ensure mixing of the protein-dye and ligand solutions followed by layering of 1 μL of silicone oil to prevent evaporation during heating of the samples.

ER-β [5] = biological target: T3, ER-β (Homo sapiens, UniProt Q92731); assay: Microplate thermal shift (Thermofluor) of ER-β with ligands and co-regulators, Example 1; format: binding; design: Observed ΔTm stabilization, ligand alone / Change in Tm stabilization from receptor-ligand ΔTm, SRC-3 / Change in Tm stabilization from receptor-ligand ΔTm, NcoR1-NR1: unit not given here; details: ER-β 8 μM, ligand 20 μM
T3 sequence (Q92731 whole entry, species assumed): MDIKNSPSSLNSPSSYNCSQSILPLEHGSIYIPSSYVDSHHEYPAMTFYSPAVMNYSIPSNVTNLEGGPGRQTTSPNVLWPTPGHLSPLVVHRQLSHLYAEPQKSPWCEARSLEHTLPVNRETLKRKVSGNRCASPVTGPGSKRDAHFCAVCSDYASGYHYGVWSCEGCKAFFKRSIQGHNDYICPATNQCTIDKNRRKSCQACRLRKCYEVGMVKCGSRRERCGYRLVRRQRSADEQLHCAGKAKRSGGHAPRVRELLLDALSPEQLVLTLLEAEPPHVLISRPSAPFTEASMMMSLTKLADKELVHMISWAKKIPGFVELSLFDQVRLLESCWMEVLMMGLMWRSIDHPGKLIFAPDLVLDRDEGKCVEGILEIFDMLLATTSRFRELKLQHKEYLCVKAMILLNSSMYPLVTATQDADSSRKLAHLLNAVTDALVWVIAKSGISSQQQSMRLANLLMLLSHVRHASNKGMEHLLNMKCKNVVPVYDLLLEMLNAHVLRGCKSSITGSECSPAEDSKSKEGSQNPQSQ
Protocol: as §1

ER-α [6] = biological target: T1, ER-α; assay: biochemical; remark: listed apart in the source
Protocol: Table 4, shown below, is a summary of the data obtained for ER-α and ER-β in the presence of the coactivator proteins SRC-1 SRC-2 and SRC-3 and in the presence of seven ligands. The concentration of ER-α in all experiments was 8 μM, the ligand concentration was 40 μM, SRC-1 and SRC-3 were at 20 μM.
as §2, with “A” for “The experiments were performed in 25 mM HEPES pH 7.9, 200 mM NaCl, 5 mm DTT and in the presence of 50 μM dapoxyl-2-amino-ethyl sulfonamide. A”, “experiments. The values for the co-regulators represent a change in Tm stabilization from the receptor-ligand ΔTm values.” for “experiments.”
FIG. 3 illustrates binding constants, Ka, for co-activator proteins SRC-1, SRC-2 and SRC-3 in the presence of ER-α ligands. FIG. 4 illustrates binding constants, Ka, for co-activator proteins SRC-1, […] in the presence of ER-β ligands Binding constants were calculated from the observed induced ligand and co-regulator stabilization of the nuclear receptor.

ER-β [7] = biological target: T3, ER-β; details: ligand 40 μM; for Observed ΔTm stabilization, Ligand: no co-activator; for Change in Tm stabilization from receptor-ligand ΔTm, SRC1: SRC-1 20 μM
ER-β [8] = biological target: T3, ER-β; assay: biochemical
[9] = read-out: Change in Tm stabilization from receptor-ligand ΔTm, SRC1
[10] = read-out: Change in Tm stabilization from receptor-ligand ΔTm, SRC3

Question: With 4-hydroxytamoxifen [4-OH-tamoxifen] as the molecule, how does the “Classification as agonist or antagonist for ER-α” value (ER-α [1]) read?
Answer: antagonist

Question: Which “Observed stabilization of PPAR-γ, SRC1-NR2” value (PPAR-γ [2]) does the source give for `CC(C)(c1ccc(OCC2CO2)cc1)c1ccc(OCC2CO2)cc1` (stereo not drawn) [BADGE] here?
Answer: 1.1

Question: And the “Observed stabilization of PPAR-γ, NCoR-1” value (PPAR-γ [2])?
Answer: 5.5

Question: What about the “Observed stabilization of PPAR-γ, Ligand” value (PPAR-γ [2]) of the same molecule?
Answer: 1.1

Question: And the “Thermofluor Prediction (PPAR-γ)” value (PPAR-γ [2])?
Answer: Antagonist

Question: What about the “Literature profile of ligand” value (PPAR-γ [3]) of the same molecule?
Answer: Antagonist γ

Question: For `O=C(Nc1ccccc1)c1cc([N+](=O)[O-])ccc1Cl` [GW9662], which “Observed stabilization of PPAR-γ, SRC1-NR2” value (PPAR-γ [2]) is on record?
Answer: 1.2

Question: What about the “Observed stabilization of PPAR-γ, NCoR-1” value (PPAR-γ [2]) of the same molecule?
Answer: 3.5

Question: And the “Observed stabilization of PPAR-γ, Ligand” value (PPAR-γ [2])?
Answer: 5.9

Question: What about the “Thermofluor Prediction (PPAR-γ)” value (PPAR-γ [2]) of the same molecule?
Answer: Antagonist

Question: What about the “Literature profile of ligand” value (PPAR-γ [3]) of the same molecule?
Answer: Antagonist γ

Question: For `C[C@]12CCC(=O)C=C1CC[C@@H]1[C@@H]2C(=O)C[C@@]2(C)[C@H]1CC[C@]2(O)C(=O)CO` [cortisone], which ΔTm (ER-α [4]) is on record?
Answer: 0.01 °C

Question: What does the source list for `Cc1cccc(Nc2cc(Cl)nc(SCC(=O)O)n2)c1C` [WY14643]?
Answer: Observed stabilization of PPAR-γ, SRC1-NR2 (PPAR-γ [2]): 1.5; Observed stabilization of PPAR-γ, NCoR-1 (PPAR-γ [2]): 5.0; Observed stabilization of PPAR-γ, Ligand (PPAR-γ [2]): 1.0; Thermofluor Prediction (PPAR-γ) (PPAR-γ [2]): Antagonist; Literature profile of ligand (PPAR-γ [3]): Partial α, antagonist γ

Question: Which results are given for `C[C@]12CC[C@@H]3c4ccc(O)cc4C[C@@H](CCCCCCCCC[S+]([O-])CCCC(F)(F)C(F)(F)F)[C@H]3[C@@H]1CC[C@@H]2O` (stereo partly drawn) [ICI-182780]?
Answer: Co-activator recruitment / additional stabilization, conclusion in words (ER-α [1]; from Table 1, both receptors ER-α and ER-β): no ability to recruit co-activators; ΔTm at 11 µM (ER-α [1]; read-out: Change in Tm stabilization from receptor-ligand ΔTm, SRC-3): 0.5 °C; ΔTm at 11 µM (ER-β [5]; co-activator protein SRC-3 11 μM, read-out: Change in Tm stabilization from receptor-ligand ΔTm, SRC-3): 0.9 °C; Co-activator recruitment, conclusion in words (ER-α [6]; from Table 4 and FIGS. 3 and 4, SRC-1, SRC-2, SRC-3, ER-α (b172 also ER-β)): very little ability to recruit co-activator; ΔTm at 20 µM (ER-α [6]; [9]): 0.4 °C; ΔTm at 20 µM (ER-α [6]; [10]): 0.5 °C; Observed ΔTm stabilization, Ligand (ER-β [7]): 16.7; ΔTm at 20 µM (ER-β [8]; [9]): 0.5 °C; ΔTm at 20 µM (ER-β [8]; [10]): 0.9 °C

Question: For “17-α-ethylene-estradiol [17-α-ethylene-E2]”, which “Change in Tm stabilization from receptor-ligand ΔTm, SRC1” value (ER-β [7]) is on record?
Answer: 1.1

Question: What does the source list for `COc1cc2c(cc1O)CC[C@@H]1[C@@H]2CC[C@]2(C)[C@@H](O)CC[C@@H]12` [2-methoxy-E2, 2-methoxy-estradiol]?
Answer: Change in Tm stabilization from receptor-ligand ΔTm, NcoR1-NR1 (ER-α [1]; ER-α 8 μM, ligand 20 μM, co-repressor peptide NCoR-1 100 μM): −0.7; Observed ΔTm stabilization, ligand alone (ER-α [1]; ER-α 8 μM, ligand 20 μM, no co-regulator, average of four experiments): 3.5; Classification as agonist or antagonist for ER-α (ER-α [1]; if screened against a panel of co-regulators as in Example 1): agonists; Change in Tm stabilization from receptor-ligand ΔTm, SRC1-NR2 (ER-β [5]; co-activator peptide SRC1-NR2 100 μM): 4.4; Change in Tm stabilization from receptor-ligand ΔTm, SRC3-NR2 (ER-β [5]; co-activator peptide SRC3-NR2 100 μM): 4.4; Change in Tm stabilization from receptor-ligand ΔTm, SRC-3 (ER-β [5]; co-activator protein SRC-3 11 μM): 2.5; Change in Tm stabilization from receptor-ligand ΔTm, NcoR1-NR1 (ER-β [5]; co-repressor peptide NCoR-1 100 μM): −0.7; Observed ΔTm stabilization, ligand alone (ER-β [5]; no co-regulator, average of four experiments): 2.9; Change in Tm stabilization from receptor-ligand ΔTm, SRC1 (ER-α [6]; ER-α 8 μM, ligand 40 μM, SRC-1 20 μM): 2.1; Observed ΔTm stabilization, Ligand (ER-α [6]; ER-α 8 μM, ligand 40 μM, no co-activator): 3.5; Change in Tm stabilization from receptor-ligand ΔTm, SRC1 (ER-β [7]): 1.0; Change in Tm stabilization from receptor-ligand ΔTm, SRC3 (ER-β [7]; SRC-3 20 μM): 2.5; Change in Tm stabilization from receptor-ligand ΔTm, SRC2 (ER-β [7]; co-activator protein SRC-2): 2.4; Observed ΔTm stabilization, Ligand (ER-β [7]): 2.9

Question: With `C[C@]12CC[C@@H]3c4ccc(O)cc4CC[C@H]3[C@@H]1CC[C@@H]2O` [Estradiol] as the molecule, how does the ΔTm at 20 µM (ER-β [8]; [9]) read?
Answer: 0.5 °C
